The source of these data is patent publication US20250090437A1, “COSMETIC COMPOUNDING AGENT, COSMETIC AND PRODUCTION METHOD THEREOF” (MIYOSHI OIL & FAT CO., LTD., priority 2019, published 2025).

A short description of data set [1]: Sensory evaluation on healthy hair after using shampoo agent containing organic ammonium salt. More on the design: species or system human. The note with it: shampoo agent containing 3.0% by mass of the compound; treated 10 times. On the procedure: (§1) Next, the mixture was cooled to a temperature of 30° C. or lower, and a purified water of an evaporated amount was then added thereto so that the whole hair treatment composition would be 100% by mass, followed by uniformly mixing them so as to obtain a hair treatment composition(s). The pH level of the hair treatment composition was adjusted to pH 6.0 by adding a citric acid or sodium hydroxide.
About 5 g of the healthy hair was taken and dipped into 350 ml of a seven-time dilute aqueous solution of each of the abovementioned hair treatment compositions (shampoo agents) at 35 to 40° C. so as to be washed. The healthy hair was then subjected to a rinsing treatment five times using 500 ml of a warm water of 35 to 40° C., followed by drying the same at 80° C., and then performing air drying at 25° C. Such series of treatment involving hair washing, rinsing and drying was repeated 10 times to then evaluate a cohesiveness of the hair, a moist feeling of the hair, a gloss of the hair, a surface smoothness of the hair and a non-stickiness on the surface of the hair, after performing air drying.

Data set [2] in a line: Sensory evaluation on damaged hair after using shampoo agent containing organic ammonium salt. Particulars: shampoo agent containing the compound; treated 10 times. Set-up: species or system human. On the procedure: as §1
The damaged hair was repeatedly treated 10 times in a similar manner as 3-1; evaluated were a cohesiveness of the hair, surface smoothness of the hair and waviness of the hair after performing air drying.

Data set [3] is described as follows: Sensory evaluation on healthy hair after using conditioner containing organic ammonium salt. More on the design: species or system human. The note with it: conditioner containing 3.0% by mass of the compound. On the procedure: Here, 4.5% by mass of a stearyl alcohol (KALCOL 8688 by Kao Corporation), 2.0% by mass of a behenyl alcohol (KALCOL 220-80 by Kao Corporation) and 0.5% by mass of a phenoxyethanol (Hisolve EPH by TOHO Chemical Industry Co., Ltd.) were mixed together and heated to 75° C. to obtain a liquid A. Further, 3.0% by mass of a behentrimonium chloride (CATINAL DC-80 by TOHO Chemical Industry Co., Ltd.), 5.0% by mass of dipropylene glycol and 3.0% by mass of each of the compounds B11, B23, B26, B27 and B28 (content in terms of anhydride in the cases of the compounds B11 and B23) were added together, followed by adding a purified water thereto, and then melting them at 80° C., thus obtaining a liquid B. The liquid B was then gradually added to the liquid A, and stirring was performed at 75° C. for 20 min. Next, the mixture was cooled to a temperature of 40° C. or lower, and a purified water of an evaporated amount was then added thereto so that the whole hair treatment composition would be 100% by mass, followed by uniformly mixing them so as to obtain a hair treatment composition(s).
About 5 g of the healthy hair was dipped into and kept immersed in 150 g of a seven-time dilute aqueous solution of each of the abovementioned hair treatment compositions (conditioners) at 40° C. for 30 min. […] After air drying, a combing capability, cohesiveness and non-stickiness of the hair were evaluated.

Data set [4] can be described thus: Water retention property test 1. Particulars: 80 wt % aqueous solution. The format is physicochemical. On the procedure:
A moisture rate after 24 hours was again measured (post-test moisture rate: B), followed by using the formula below to calculate a rate of reduction in moisture so as to evaluate the water retention property. • Pre-test moisture rate: A (%) • Post-test moisture rate: B (%)

A short description of data set [5]: Water retention property test 3 (long term). The format is physicochemical. Particulars: 80 wt % aqueous solution, 40° C. and 25% RH. On the procedure: In a water retention property test 3, an 80 wt % aqueous solution of each of the compounds C8, C11, C62, C63 and C64 was prepared, followed by using a Karl Fischer moisture meter to confirm that a moisture rate was 20.0 wt %. Next, 1.0 g of each of these samples was added to a screw tube, and this screw tube, while remaining unsealed, was then left to stand still in a thermo-hygrostat set to 40° C. and 25% RH. […] In addition, the water retention property was evaluated by calculating an amount of moisture reduction per hour (mg/h) based on each amount of moisture reduction (mg).

A short description of data set [6]: Water confinement property test (barrier property). Particulars: 80 wt % aqueous solution, 0.01 mL/cm^2 on filter paper, 40° C. and 25% RH, 24 hours. The format is physicochemical.
Data set [7] can be described thus: Solubility of active ingredient (gallic acid) in aqueous solution of the compound. The note with it: in 1.8 g compound + 8.2 g ion-exchange water.
Data set [8] in a line: Solubility of active ingredient (glutamic acid) in aqueous solution of the compound. Particulars: in 1.8 g compound + 8.2 g ion-exchange water.
The mark [9] stands for this setting: unsealed, 24 hours at 40° C. and 25% RH.

Consider `OCC(O)CO` [Compound A52, glycerin, reference compound], for which the “Sensory evaluation of healthy hair after shampoo agent (cohesiveness, moist feeling, gloss, smoothness, non-stickiness)” value in data set [1] is recorded as “inferior in general”. Also, the “Sensory evaluation of damaged hair after shampoo agent (cohesiveness, surface smoothness, waviness)” value in data set [2] is “inferior surface smoothness”. For the same compound, the “Combing capability, cohesiveness and non-stickiness of healthy hair after conditioner” value in data set [3] was “slightly inferior”. For the same compound, in data set [4] (before the test (Karl Fischer)), the Pre-test moisture rate came to 20.0%. For the same compound, in data set [4] (setting [9]), the Post-test moisture rate stood at 18.0% and the “Rate of reduction in moisture” value is given as 10.0%. For the same compound, in data set [5] (unsealed), the “Amount of moisture reduction in 120 to 144 h” value is recorded as 29.4 mg, the “Amount of moisture reduction in 144 to 168 h” value is reported as 30.0 mg, the “Amount of moisture reduction in 168 to 192 h” value amounted to 13.1 mg and the “Moisture rate after 144 h” value was 5.4%. Moreover, in data set [5] (unsealed), the “Moisture rate after 168 h” value is given as 1.9% and the “Moisture rate after 192 h” value came to 0.3%. In addition, the “Amount of moisture reduction per hour” value in data set [5] (120~144 h) was 1.2 mg/h. Moreover, in data set [5] (144~168 h), the “Amount of moisture reduction per hour” value worked out at 1.3 mg/h. Further, the “Amount of moisture reduction per hour” value in data set [5] (168~192 h) is on record as 0.5 mg/h. In addition, in data set [6], the “Water evaporation inhibition rate” value is 16.2%. For the same compound, in data set [7], the “Amount of dissolution Gallic acid” value was 0.08 g. Moreover, in data set [8], the “Amount of dissolution Glutamic acid” value is <0.08 g.
